Measured values taken from PubChem BioAssay (NCI).
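Cultured in 96-well plates, cells were exposed to test compound for 48 hours across five concentrations. GI50 is the concentration that inhibits growth by half. TGI denotes the concentration required for complete inhibition of growth.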

Tests used:
Test in all cases: growth of human tumour cells (NCI), 48 h
HCC-2998 colon = tested on: HCC-2998 colon
HL-60(TB) leukemia = tested on: HL-60(TB) leukemia
HOP-62 NSCLC = tested on: HOP-62 NSCLC
OVCAR-4 ovarian = tested on: OVCAR-4 ovarian
OVCAR-5 ovarian = tested on: OVCAR-5 ovarian
RXF 393 renal = tested on: RXF 393 renal
SF-539 CNS = tested on: SF-539 CNS
SK-MEL-5 melanoma = tested on: SK-MEL-5 melanoma
SN12C renal = tested on: SN12C renal
SNB-19 CNS = tested on: SNB-19 CNS

SMILES	TGI (HCC-2998 colon) [µM]	TGI (HL-60(TB) leukemia) [µM]	TGI (HOP-62 NSCLC) [µM]	TGI (OVCAR-4 ovarian) [µM]	TGI (OVCAR-5 ovarian) [µM]	TGI (RXF 393 renal) [µM]	TGI (SF-539 CNS) [µM]	TGI (SK-MEL-5 melanoma) [µM]	TGI (SN12C renal) [µM]	TGI (SNB-19 CNS) [µM]	GI50 (HCC-2998 colon) [µM]	GI50 (OVCAR-4 ovarian) [µM]	GI50 (OVCAR-5 ovarian) [µM]	GI50 (RXF 393 renal) [µM]	GI50 (SF-539 CNS) [µM]	GI50 (SK-MEL-5 melanoma) [µM]	GI50 (SN12C renal) [µM]	GI50 (SNB-19 CNS) [µM]
CN(/N=C\c1ccc2ccccc2c1)C1=NCCCCN1	28.5	39.9	90.7	> 100	> 100	42.6	48.6	27.3	45.7	–	–	–	–	–	–	–	–	–
Nc1ccn(C2OC(COP(=O)(O)Oc3ccccc3)C(O)C2O)c(=O)n1 (stereo not given)	> 100	> 100	–	> 100	> 100	> 100	> 100	> 100	> 100	> 100	–	–	–	–	–	–	–	–
CC(C)[Si]1(C(C)C)OCC2OC(n3ccc(=O)[nH]c3=O)C(O)(CO)C2O[Si](C(C)C)(C(C)C)O1 (stereo not given)	–	> 100	33.8	26.9	29.5	30.4	32.2	28.4	29.8	28.9	–	–	–	–	–	–	–	–
O=C(NCc1ccccc1)c1cnc(Cl)cn1	43.3	> 100	–	> 100	–	> 100	> 100	> 100	> 100	> 100	–	–	–	–	–	–	–	–
C=C(Cl)C(Cl)(CBr)CCC(Cl)C(C)(C)Cl (stereo not given)	16.4	–	4.04	3.88	7.41	10.9	1.35	24.7	22.5	7	–	–	–	–	–	–	–	–
C[C@@H]1OC(=O)C[C@H]2CC(=O)N(CCc3cn(S(=O)(=O)C(F)(F)F)c4ccccc34)C[C@@H]21	> 100	–	> 100	> 100	> 100	> 100	–	> 100	–	> 100	–	–	–	–	–	–	–	–
O=C(CCN1CCCC1)Nc1ccc2c(NCCCc3ccccc3)c3ccccc3nc2c1	2.43	–	–	2.26	2.4	2.2	2.55	2.97	2.21	2	1.14	0.812	1.12	0.918	1.24	1.61	0.815	0.729
CC1(C)CCc2c(c(N=Nc3ccccc3)c3ccccc3c2O)O1	–	> 100	> 100	> 100	> 100	33.6	69.6	> 100	40.1	> 100	–	–	–	–	–	–	–	–
Nc1cccc(OCc2nc(N)nc(N)c2-c2ccc(Cl)cc2)c1	–	77.3	> 100	> 100	> 100	> 100	–	> 100	> 100	> 100	–	–	–	–	–	–	–	–
CCC(=O)NCCc1c[nH]c2ccc(OC)cc12	> 100	–	> 100	> 100	> 100	> 100	> 100	> 100	> 100	> 100	–	–	–	–	–	–	–	–
Cc1ccc(/C=N/Nc2ncccn2)s1	> 100	–	> 100	> 100	> 100	> 100	> 100	> 100	> 100	> 100	–	–	–	–	–	–	–	–
C[C@@H]1CCC2[C@@H](C)C(=O)O[C@@H]3C4C[C@@H]1[C@@]23OO[C@@]4(C)O (stereo not given in full)	> 100	–	> 100	> 100	> 100	> 100	> 100	> 100	> 100	> 100	–	–	–	–	–	–	–	–
O=C(O)c1ccccc1/C=N\NC1=NCCN1	> 100	> 100	> 100	> 100	> 100	–	> 100	> 100	> 100	> 100	–	–	–	–	–	–	–	–
CC(C)[Si](OC1=CCCCCC12C(=O)N(C)c1ccccc12)(C(C)C)C(C)C (stereo not given)	38.3	38.9	58.1	> 100	33.2	21.8	41.7	33.8	–	29.5	–	–	–	–	–	–	–	–
CC1OC(=O)c2ccccc2NC1=O (stereo not given)	–	> 100	> 100	> 100	> 100	> 100	> 100	> 100	> 100	> 100	–	–	–	–	–	–	–	–
O=C(/C=C/c1ccc(O)c(O)c1)OCCOC(=O)/C=C/c1ccc(O)c(O)c1	> 100	–	47.4	> 100	65.8	51.9	52.6	32.7	65.1	> 100	–	–	–	–	–	–	–	–
Cc1ccc(S(=O)(=O)N/N=C2\C=C[C@]3(CC2)C(=O)N(C)c2ccccc23)cc1	> 100	> 100	> 100	> 100	> 100	> 100	–	> 100	> 100	> 100	–	–	–	–	–	–	–	–
CC1=C(C(=O)OC(C)C)C(c2ccccc2[N+](=O)[O-])C(C(=O)OC(CO[N+](=O)[O-])CO[N+](=O)[O-])=C(C)N1 (stereo not given)	43	> 100	11.2	22.4	> 100	15.5	–	4.78	52.6	23.8	–	–	–	–	–	–	–	–
COC(=O)C1=C(O)C(C(=O)OC)[C@]2(O)[C@H](C(=O)OC)[C@H]1C[C@@H](c1ccc(OC)cc1)[C@H]2C(=O)OC (stereo not given in full)	37.8	–	85.1	78.2	51.9	42	> 100	55.8	53.9	79.8	–	–	–	–	–	–	–	–
COc1ccc(C)cc1NC(=S)N/N=C/c1ccc(SC)cc1	–	> 100	> 100	> 100	> 100	> 100	89.9	51.9	> 100	> 100	–	–	–	–	–	–	–	–
COc1nc(=O)n(C2CC(N=[N+]=[N-])C(CO)O2)cc1C (stereo not given)	–	> 100	> 100	> 100	> 100	–	> 100	> 100	> 100	> 100	–	–	–	–	–	–	–	–
NC(CCCCNc1ccn(C2OC(CO)C(O)C2O)c(=O)n1)C(=O)O (stereo not given)	> 100	> 100	–	> 100	> 100	> 100	> 100	> 100	> 100	> 100	–	–	–	–	–	–	–	–
